Results published in US20190151229A1, “USE OF AN ESSENTIAL OIL OF EVERLASTING FLOWER IN ORDER TO INCREASE OR RESTORE TACTILE PERCEPTION” (LABORATOIRES M&L, priority 2016, published 2019).

Test system: human sensory neurons
Experiment: Effect on neurite growth in co-culture of human sensory neurons and keratinocytes
Type: cell-based
Conditions: NGF at 50 ng/ml, 6 days, vs control medium, p<0.05
Description: Sensory neurons are derived from iPS cells (induced Pluripotent Stem cells) which are themselves obtained from human fibroblasts. The iPSs were seeded into six-well plates coated with a thin layer of Matrigel® (Corning) in a proportion of 250 000 cells per well in a differentiation medium consisting of DMEM-F12 (Panbiotech) supplemented with 10% of Knockout Serum Replacement (KSR, Life technologies), 5 μM of CHIR 99021 (Tocris), 0.1 μM of retinoic acid (Sigma), 1 μg/ml of EPO (Erythropoietin; Peprotech), a cocktail of central differentiation pathway inhibitors and 1% of PS antibiotics (Penicilin-Streptomycin; Panbiotech). The cells were maintained in culture for 6 days at 37° C. and 5% CO2. The culture medium was changed every 2 days. Under these culture conditions, the iPSs differentiate into human sensory neurons.
At this stage, the cells were dissociated using accutase (Sigma Aldrich) for 10 minutes at 37° C. The reaction was stopped by adding culture medium. The cell suspension was centrifuged for 5 minutes at 1200 rpm. […]
Twenty photographs per culture well were taken with the automatic microscope (InCell 2000; GE Healthcare) at a ×20 magnification and the cell bodies of the sensory neurons were counted. […]

Substance: NGF: reference molecule; nerve growth factor, naturally present in the epithelium, known to stimulate neurite extension in vitro
- increase in the length of the projections of the human sensory neurons: +22.8%
